“Also recorded” adds a separate entry of the source.
Legend:
MCF7 (ER+,HER2−) = assay: Proliferation assay, aromatase expressing MCF7 clones; format: cell-based, Human; settings: for proliferation response to increasing doses (fold change): MCF7 aromatase clones, versus DCC medium alone (E2, androstenedione) or androstenedione alone (4-OH tamoxifen, letrozole); for IC50: Homo sapiens
Description: (§1) Human breast cancer cell lines with varying expression of ER and HER2 were engineered to express aromatase. The cell lines were MCF7 (ER+,HER2−), ZR75.1 (ER+,HER2+), BT474 (ER+, HER2++) and SKBR3 (ER−, HER2++).
(§2) Proliferation assays were carried out as follows. The target cell lines listed above were cultured in phenol red-free RPMI 1640 medium containing 10% charcoal stripped foetal calf serum and 10[…]g.ml insulin (DCC medium), with daily changes for 3 days. The cell lines were then seeded in to 12-well plates at an appropriate density (MCF7 1×10^4/well, ZR75.1 2×10^4/well, BT474 2×10^4/well, SKBR3 1×10^4/well). After 24-48 hours, the cell monolayers were treated with increasing concentrations of androstenedione or E2. […] Drug treatments were changed daily over a period of 6 days. Cell number was determined using a Z1 Coulter Counter (Beckman Coulter, UK). With the threshold set at 15 μm diameter, 75% the average 20 μm size of MCF7 cells.

ZR75.1 (ER+,HER2+) = assay: Proliferation assay, aromatase expressing ZR75.1 clones; format: cell-based, Human; settings: for proliferation response to increasing doses (fold change): ZR75.1 aromatase clones, versus DCC medium alone (E2, androstenedione) or androstenedione alone (4-OH tamoxifen, letrozole); for IC50: Homo sapiens
Description: as §1, §2

BT474 (ER+, HER2++) = assay: Proliferation assay, aromatase expressing BT474 clones; format: cell-based, Human; settings: for proliferation response to increasing doses (fold change): BT474 aromatase clones, versus DCC medium alone (E2, androstenedione) or androstenedione alone (4-OH tamoxifen, letrozole); for IC50: Homo sapiens
Description: as §1, §2

ZR75.1 tumour xenografts = assay: Growth of ZR75.1 tumour xenografts in vivo; parameters: species or system Mice; settings: ZR75.1A3 xenografts under androstenedione, p.o.
Description: Experimental study groups consisted of 6 animals. All tumours were grown to approximately 7 mm diameter under E2 support. Once the tumours were established, the E2 pellet was removed and replaced with androstenedione. Mice were then randomised into cages and treated as described below. Tumours were assessed twice weekly by bi-dimensional caliper measurements and volume calculated based on the volume of a sphere 4/3 […]. Data was expressed as fold change in tumour volume compared to day zero treatment for each treatment group.
Effect of 6-[4-(4-ethyl-piperazin-1-ylmethyl)-phenyl]-7H-pyrrolo[2,3-d]pyrimidin-4-yl}-(1-[phenyl-ethyl)-amine in combination with endocrine therapy was investigated in ZR75.1A3.
Groups: • (i) Vehicle (10% N-methyl-pyrollidone (NMP)/90% polyethylene glycol (PEG 300)).

[1] = system: ER-α-mediated transcription; assay: ERα transactivation luciferase reporter assay (pEREtkIIluc); format: cell-based, Human
Description: ERα transactivation was monitored using a standard reporter construct consisting of two EREs upstream of a minimal thymidine kinase reporter linked to a gene encoding luciferase (pEREtkIIluc). Activity was normalized using a second plasmid consisting of the β-galactosisdase gene downstream of the constitutively active simian virus 40 promoter (SV40)(pCH110). The target cell lines indicated, were cultured in DCC medium as described previously. Cells were then seeded into 24-well plates at a density of 7×10^5 cells/well (MCF7, ZR75.1 and SKBR3). The following day the cells were transfected by lipofectin (Life Technologies, Inc.) at a ratio of 1:2.5 (DNA:lipid) with 0.25 μg of EREIItkluc and 0.25 μg of pCH110 for 4 hours in serum-free phenol red-free RPMI 1640 medium. The cells were subsequently placed in DCC medium and left to recover overnight. BT474 cells were treated similarly but with the exception that cells were seeded at a density of 1×10^5 cells/well and monolayers were transfected by lipofectamine 2000 (Life Technologies, Inc.) at a ratio of 1:2.5 with 0.4 μg pEREtkIIluc and 0.4 μg pCH110 per well for 4 hours. […] After treatment for 24 hours, the luciferase (Promega, UK) and β-galactosidase (Galacton Star, PE Biosystems, UK) activity were measured using a luminometer.

MCF7A2 cell line = assay: Cell cycle FACS analysis (propridium iodide), MCF7A2; format: cell-based, Human; settings: MCF7A2, androstenedione, 72 hours
Description: (§3) Cell lines were depleted of steroid for 3 days in DCC medium then seeded in 10 cm dishes at a density of 1×10^6 cells. After 48 hours, appropriate monolayers were pretreated with 6-[4-(4-ethyl-piperazin-1-ylmethyl)-phenyl]-7H-pyrrolo[2,3-d]pyrimidin-4-yl}-(1-[phenyl-ethyl)-amine for 1 hour in DCC medium. […] In the case of MCF7 and ZR75.1 the 6-[4-(4-ethyl-piperazin-1-ylmethyl)-phenyl]-7H-pyrrolo[2,3-d]pyrimidin-4-yl}-(1-[phenyl-ethyl)-amine concentration was increased to 5 μM. Cell were treated for 72 hours then fixed with 70% ethanol and stained with Propridium iodide. FACS analysis was used to establish the effect of the drug combinations on cell cycle.

BT474 A3 = assay: Cell cycle FACS analysis (propridium iodide), BT474 A3; format: cell-based, Human; settings: BT474 A3, androstenedione, 72 hours
Description: as §3

SKBR3 (ER−, HER2++) = assay: Proliferation assay, SKBR3 clones; format: cell-based; settings: Homo sapiens, SK-BR-3; effect on proliferation, fold change compared to DCC medium alone
Description: as §1
as §2, with “cells. Cell counts were averaged for each triplicate treatment and normalised against the control sample to give the average fold-difference in cell growth.” for “cells.”

total or pHER2 = assay: Western blot of HER2 signal transduction: HER2; format: cell-based, Human; settings: 0.1, 1 and 10 μM, 8 hours
Description: (§4) Western Blot analysis of the effect of 6-[4-(4-ethyl-piperazin-1-ylmethyl)-phenyl]-7H-pyrrolo[2,3-d]pyrimidin-4-yl}-(1-[phenyl-ethyl)-amine on HER2 signal transduction.
(§5) Target cell lines were stripped of steroid for 3 days in DCC medium prior to seeding at a density of 1.5-2×10^6 cells per 10 cm dish. Monolayers were left to acclimatize for 24 hours prior to treatment with 0, 0.1, 1 and 10 μM 6-[4-(4-ethyl-piperazin-1-ylmethyl)-phenyl]-7H-pyrrolo[2,3-d]pyrimidin-4-yl}-(1-[phenyl-ethyl)-amine in DCC medium for 8 hours. […] The protein concentration was then quantified using BioRad protein assay kit (Bio Rad, UK). […] Filters were blocked (10 mM Tris-HCl, pH 8.3, 150 mM NaCl containing 4% milk powder) washed twice in PBS containing 0.025% Tween-20 and probed with specific antibodies (p HER2 and total HER2 (Upstate, UK), pAKT, total AKT, pMAPK and total MAPK (Cell signaling, UK) and HRP-conjugated secondary antibody (Amersham Pharmacia Biotech, UK). The antibodies were diluted 1/1000 in 1.5% bovine serum albumin, 10 mM Tris-HCl, pH 8.3, 150 mM NaCl, 0.025% Tween-20 and 0.01% sodium azide. Immuno complexes were detected using Ultra-Signal chemiluminescence kit (Pierce and Warriner, UK). Chemiluminescence was quantified using Fluro-S and analysed using Quantity One software (BioRad, UK).

pMAPK = assay: Western blot of HER2 signal transduction: MAPK; format: cell-based, Human; settings: 0.1, 1 and 10 μM, 8 hours
Description: as §4, §5

pAKT = assay: Western blot of HER2 signal transduction: AKT; format: cell-based, Human; settings: all of the cell lines tested; 0.1, 1 and 10 μM, 8 hours
Description: as §4, §5

SMILES | proliferation response to increasing doses (fold change) (MCF7 (ER+,HER2−)) | proliferation response to increasing doses (fold change) (ZR75.1 (ER+,HER2+)) | proliferation response to increasing doses (fold change) (BT474 (ER+, HER2++)) | tumour growth / tumour volume (fold change compared to day zero) (ZR75.1 tumour xenografts) | ER-α-mediated transcription ([1]; ER+ cell lines) | number of cells in G0/G1 (MCF7A2 cell line) | number of cells in G0/G1 (BT474 A3) | also measured
CC/C(=C(\c1ccc(O)cc1)c1ccc(OCCN(C)C)cc1)c1ccccc1 [4-OH tamoxifen] | dose dependent decrease in proliferation | dose dependent decrease in proliferation | dose dependent decrease in proliferation | as affective as AEE788 | – | – | – | –
C[C@]12CC[C@@H]3c4ccc(O)cc4CC[C@H]3[C@@H]1CC[C@@H]2O [E2] | dose dependent increase in proliferation | dose dependent increase in proliferation | dose dependent increase in proliferation | – | increased ER-[…]-mediated transcription in a dose-dependent manner | – | – | –
N#Cc1ccc(C(c2ccc(C#N)cc2)n2cncn2)cc1 [Letrozole, 4-[α-(4-cyanophenyl)-1-(1,2,4-triazolyl)methyl]-benzonitrile] | dose dependent decrease in proliferation | dose dependent decrease in proliferation | dose dependent decrease in proliferation | markedly inhibited; also recorded: more effective than 4-OH tamoxifen alone or in combination with AEE788 | inhibited | increase in the number of cells in G0/G1 | more effective than tamoxifen at arresting cells in G0/G1 | IC50 (MCF7 (ER+,HER2−); MCF7, 144 h, inhibition of proliferation, aromatase expressing clones, androstenedione, 6 days): 5 nM; IC50 (ZR75.1 (ER+,HER2+); ZR-75-1, 144 h, inhibition of proliferation, aromatase expressing clones, androstenedione, 6 days): 1 nM; IC50 (BT474 (ER+, HER2++); BT-474, 144 h, inhibition of proliferation, aromatase expressing clones, androstenedione, 6 days): 5 nM
CC/C(=C(\c1ccccc1)c1ccc(OCCN(C)C)cc1)c1ccccc1 [Tamoxifen] | – | – | – | – | inhibited | increase in the number of cells in G0/G1 | – | –
C[C@]12CCC(=O)C=C1CC[C@@H]1[C@@H]2CC[C@]2(C)C(=O)CC[C@@H]12 [androstenedione] | dose dependent increase in proliferation | dose dependent increase in proliferation | dose dependent increase in proliferation | – | increased ER-[…]-mediated transcription in a dose-dependent manner | – | – | –
CCN1CCN(Cc2ccc(-c3cc4c(N[C@H](C)c5ccccc5)ncnc4[nH]3)cc2)CC1 [{6-[4-(4-ethyl-piperazin-1-ylmethyl)-phenyl]-7H-pyrrolo[2,3-d]pyrimidin-4-yl}-(1-[phenyl-ethyl)-amine] | – | – | – | modest inhibitory effect on tumour growth in the magnitude of that seen with tamoxifen | – | increase in the number of cells in G0/G1 | more effective than tamoxifen at arresting cells in G0/G1 | IC50 (MCF7 (ER+,HER2−); MCF7, effect on proliferation, fold change compared to DCC medium alone): 5000 to 10000 nM; IC50 (ZR75.1 (ER+,HER2+); ZR-75-1, effect on proliferation, fold change compared to DCC medium alone): 2000 to 5000 nM; IC50 (BT474 (ER+, HER2++); BT-474, effect on proliferation, fold change compared to DCC medium alone): 500 nM; IC50 (SKBR3 (ER−, HER2++)): 1500 nM; ER-α-mediated transcription ([1]; cell line BT474 (ER+, HER2++), basal and AND-induced): dose dependent decrease; ER-mediated transcription ([1]; cell lines expressing low levels of HER2 (MCF7 and ZR75.1)): little effect; effect on total or pHER2 (total or pHER2): no obvious effect on total or pHER2; effect on pMAPK (pMAPK; MCF7 cells): no effect on MCF7 cells; effect on pMAPK (pMAPK; ZR75.1, BT474 and SKBR3 cell lines): decrease of pMAPK; effect on pAKT (pAKT): decreased in a dose dependent manner
